Results published in the supplement of paper PMC13380429.
± gives the standard deviation of the averaged measurements.

Experiments:
Conditions in all cases: 72 h
U2OS [1] = assay: cell viability relative to DMSO; higher = less toxic
Caco-2 [2] = assay: as above
HepG2 [3] = assay: as above
Calu-3 [4] = assay: as above
Vero E6 [5] = assay: as above
U2OS [6] = assay: drug sensitivity score (DSS) for viability; higher = more toxic; extreme values may be limits of the assay
Caco-2 [7] = assay: as above
HepG2 [8] = assay: as above
Calu-3 [9] = assay: as above
Vero E6 [10] = assay: as above
U2OS [11] = assay: relative viability EC50 (midpoint between 100% and the lowest measured viability); higher = less toxic
Caco-2 [12] = assay: as above
HepG2 [13] = assay: as above
Calu-3 [14] = assay: as above
Vero E6 [15] = assay: as above

| Compound | cell viability (U2OS [1]; 1 nM) [%] | cell viability (U2OS [1]; 10 nM) [%] | cell viability (U2OS [1]; 100 nM) [%] | cell viability (U2OS [1]; 1000 nM) [%] | cell viability (U2OS [1]; 10000 nM) [%] | cell viability (Caco-2 [2]; 1 nM) [%] | cell viability (Caco-2 [2]; 10 nM) [%] | cell viability (Caco-2 [2]; 100 nM) [%] | cell viability (Caco-2 [2]; 1000 nM) [%] | cell viability (Caco-2 [2]; 10000 nM) [%] | cell viability (HepG2 [3]; 1 nM) [%] | cell viability (HepG2 [3]; 10 nM) [%] | cell viability (HepG2 [3]; 100 nM) [%] | cell viability (HepG2 [3]; 1000 nM) [%] | cell viability (HepG2 [3]; 10000 nM) [%] | cell viability (Calu-3 [4]; 1 nM) [%] | cell viability (Calu-3 [4]; 10 nM) [%] | cell viability (Calu-3 [4]; 100 nM) [%] | cell viability (Calu-3 [4]; 1000 nM) [%] | cell viability (Calu-3 [4]; 10000 nM) [%] | cell viability (Vero E6 [5]; 1 nM) [%] | cell viability (Vero E6 [5]; 10 nM) [%] | cell viability (Vero E6 [5]; 100 nM) [%] | cell viability (Vero E6 [5]; 1000 nM) [%] | cell viability (Vero E6 [5]; 10000 nM) [%] | drug sensitivity score (U2OS [6]) | drug sensitivity score (Caco-2 [7]) | drug sensitivity score (HepG2 [8]) | drug sensitivity score (Calu-3 [9]) | drug sensitivity score (Vero E6 [10]) | relative viability EC50 (U2OS [11]) [µM] | relative viability EC50 (Caco-2 [12]) [µM] | relative viability EC50 (HepG2 [13]) [µM] | relative viability EC50 (Calu-3 [14]) [µM] | relative viability EC50 (Vero E6 [15]) [µM] |
| --- | --- | --- | --- | --- | --- | --- | --- | --- | --- | --- | --- | --- | --- | --- | --- | --- | --- | --- | --- | --- | --- | --- | --- | --- | --- | --- | --- | --- | --- | --- | --- | --- | --- | --- | --- |
| OCC(O)CN1CCN(c2ccccc2)CC1 (stereo not given) [dropropizine] | 99.9 ± 5 | 97.3 ± 4.9 | 100.5 ± 0.49 | 97.7 ± 0.14 | 102.8 ± 0.35 | 89.7 ± 5 | 85.2 ± 12 | 97.8 ± 2.9 | 91.9 ± 0.57 | 96.3 ± 9.9 | 94.8 ± 4.6 | 101 ± 4.9 | 102 ± 1.6 | 99.5 ± 3.2 | 88.9 ± 5.2 | 106 ± 1.6 | 97.85 ± 0.64 | 104 ± 4.5 | 99.6 ± 1.3 | 97.85 ± 0.21 | 96.6 ± 7.5 | 95.8 ± 1.5 | 94.2 ± 8.5 | 96.7 ± 6.7 | 103 ± 8.4 | 0 | 0 | 0.1 ± 0.14 | 0 | 0 | > 10 | > 10 | > 10 | > 10 | > 10 |
| O=c1cc(N2CCNCC2)oc2c(-c3ccccc3)cccc12 | 96.6 | 100 | 96.8 | 102 | 101 | 93.3 | 88.9 | 89.2 | 93.9 | 106 | 105 | 100 | 98.2 | 101 | 102 | 109 | 98.4 | 108 | 106 | 117 | 100 | 96.4 | 104 | 93.1 | 103 | 0 | 0 | 0 | 0 | 0 | > 10 | > 10 | > 10 | > 10 | > 10 |
| Cc1cc(=O)oc2c(C=O)c(O)ccc12 [4-mu-8C] | 107 | 101 | 97.8 | 100 | 99 | 98 | 95.5 | 101 | 104 | 87.1 | 106 | 106 | 111 | 87.4 | 89.3 | 102 | 92.7 | 118 | 110 | 97.9 | 97.6 | 104 | 102 | 102 | 100 | 0 | 0 | 0.6 | 0 | 0 | > 10 | > 10 | > 10 | > 10 | > 10 |
